In patent publication US20060106099A1, “Novel inhibitors of ubiquitin isopeptidases” (priority 2002, published 2006):
Where two headings read alike, the source gives them in different places.

What was measured:
[1] = tested on: cell lines with Wild type p53; details: cited from earlier work
[2] = tested on: ubiquitin isopeptidases; assay: In vivo isopeptidase activity after treatment of RKO cells, Ub-PEST; format: cell-based, human; details: 6 h
Description: Isopeptidase Assay. It was hypothesized that the punaglandins would inhibit ubiquitin-isopeptidase activity of the proteasome pathway as does the prostaglandin, Δ^12-PGJ2 (1), but with greater potency because of the chlorinated C-10. To validate this theory, cellular isopeptidase enzymatic activity was measured in vitro after treatment with individual punaglandins, PNG 2 (6), PNG 3 (7), and Z-PNG 4 (9) and in vivo after individual treatment with PNG 4 (8) and PNG 6 (10). This activity was determined utilizing the simple isopeptidase substrate, ubiquitin-PEST (Ub-PEST), a full/length ubiquitin (Ub) molecule fused with an 18-amino acid C-terminal peptide extension that most isopeptidases use as a substrate. The polypeptide extension contains regions rich in Pro (P), Glu (E), Ser (S), and Thr (T) residues called PEST motifs that are responsible for rapid degradation of these and other unstable proteins. Ub isopeptidases specifically cleave this peptide extension, yielding free, full-length Ub. Both the fused Ub-PEST (10.5 kDa) and the cleaved, free Ub (8.5 kDa) can be observed via immunochemical detection.
In vivo Isopeptidase Activity. To investigate whether punaglandins can inhibit isopeptidase activity in vivo, isopeptidase activity was analyzed after punaglandin treatment of RKO cells. PNG 4 (8) and PNG 6 (10) were selected for in vivo investigation because they differ only in enone functionality, where (8) is a dienone and (10) an enone. RKO cells were incubated with 1 μM, 4 μM, or 7 μM of PNG 4 (8) and PNG 6 (10). […] As a positive control, cells were treated with a known isopeptidase inhibitor, shikoccin (SK). After 6 h drug treatment, cells were lysed and protein concentration adjusted to 0.3 mg/mL per sample. Each sample was subsequently incubated with 50 μg/mL of Ub-PEST. The reaction was terminated after 20 min and the respective amounts of Ub-PEST (10 kDa) and free Ub product (8.5 kDa) were determined by SDS-PAGE fractionation.

[3] = tested on: HCT 116 −/− cells; assay: MTT cell viability assay, HCT 116 p53 −/− cells; details: read-out: Cytotoxic Potency (EC50) HCT −/−; 48 h, MTT
Description: (§1) Cell viability was measured with MTT reagent as described in materials and methods.
(§2) Cell viability was detected by the MTT assay. Briefly, 1×10^5 cells were incubated per well of a sterile, 96-well assay plate with 0-60 μM of test compounds for 48 hours. MTT reagent was added to each well, final concentration of 0.5 mg/mL, and incubated for an additional 3 hours. The media was aspirated and remaining MTT reagent from each well and added 100 μL of HCl:isopropanol (1:24). The absorbance of each sample was measured at 405 nm.

[4] = tested on: ubiquitin isopeptidases; details: cells treated for 12 h; cited from earlier work
[5] = tested on: HCT 116 +/+ cells
[6] = tested on: ubiquitin isopeptidases; assay: Reversibility of isopeptidase inhibition in cell lysates, z-LRGG-AMC, dialysis; format: biochemical; details: 100 μM
Description: FIG. 5 Reversibility of isopeptidase inhibition by Δ12-PGJ2. Cell lysates (0.5 mg/mL) were treated with DMSO vehicle or 100 μM .12-PGJ2 for 1 hour,25° C. The treated lysates were divided into two aliquots. One aliquot was immediately analyzed for isopeptidase activity by incubating with z-LRGG-AMC as previously described (Pre-Dialysis). The second aliquot was dialyzed by washing with 3 volumes of assay buffer on a centricon YM-30 column, followed by analysis for isopeptidase activity by incubating with z-LRGG-AMC (Post-Dialysis).
Δ-12-PGJ2 irreversibility was determined. Cell lysates were incubated with vehicle or 100 μM test compound and isopeptidase activity was measured fluorimetrically. 500 μl portion of each sample were dialyzed through a Centricon filter with a molecular weight cut-off of […]. After washing with 3 volumes of assay buffer, isopeptidase activity was measured in the […].

[7] = tested on: HCT 116 −/− cells
Description: as §1, §2

[8] = tested on: ubiquitin isopeptidases; assay: In vitro isopeptidase activity in HCT 116 lysates, Ub-PEST; format: biochemical, human; details: HCT 116 lysates, 45 min
[9] = tested on: HCT 116 +/+ cells; details: Mullally et al., University of Utah, 2003; read-out: EC50 in competent HCT 116 cells; cited from earlier work

Row | SMILES | p53 dependence in NCI 60 cell line cancer screening data ([1]; analysis according to O'Connor et al., 1997) | LC50 ([1]; mean of 18 cell lines with wild type p53) [µM] | effect on Ub-PEST degradation, control substances [2] | EC50 [3] [µM] | concentration showing inhibition of Ub-PEST degradation, previous in vivo studies [4] [µM] | EC50 [5] [µM] | isopeptidase inhibition in treated cell lysates, pre-dialysis ([6]; 1 hour, 25° C.) | reversibility of isopeptidase inhibition, post-dialysis ([6]; dialysis with 3 volumes of assay buffer) | EC50 [7] [µM] | concentration at which inhibition of Ub-PEST degradation is initially observed [8] [µM] | concentration of complete (total) inhibition of Ub-PEST degradation [8] [µM] | EC50 [9] [µM]
1 | C=C1C(=O)C2=CC1CCC(=O)C1(C)CCC(OC(C)=O)C(C)(C)C1CC2O (stereo not drawn) [NSC-302979, shikoccin] | act independently of p53 | 54 | expected inhibition of Ub-PEST degradation | 3.2 ± 0.2 | – | – | – | – | – | – | – | –
2 | CCCCC[C@H](O)C/C=C1/C(=O)C=C[C@@H]1C/C=C\CCCC(=O)O [Δ12-PGJ2, Δ12-prostaglandin J2] | – | – | – | – | 60 | 3.6 ± 0.3 | inhibited isopeptidase activity in treated cell lysates | could not be reversed by dialysis | 4.1 ± 0.1 | 60 | 200 | 3.6
